According to patent US12016841B2, “Methods and compositions for treatment of presbyopia, mydriasis, and other ocular disorders” (Ocuphire Pharma, Inc., priority 2018, dated 2024):
Structures can show the parent of a compound that is named as a salt.

Test system: patients with pupil sizes of at least 7 mm in diameter under dim light conditions
Assay: Pupil diameter after one drop of 0.2%, 0.4% or 0.8% (w/v) phentolamine mesylate solution (clinical study, NeurOptics pupilometer)
Assay type: in vivo, human
Procedure: Reduction in pupil diameter can be analyzed and characterized using procedures such as those described below in which a phentolamine mesylate solution was administered to patients' eyes and change in pupil diameter was measured and characterized. […] The phentolamine mesylate solution contained either 0.2% (w/v) phentolamine mesylate, 0.4% (w/v) phentolamine mesylate, or 0.8% (w/v) phentolamine mesylate.
Sixteen patients were randomized into four groups (of four subjects each). Each group was treated on three successive study visits separated by at least 4 days with one drop of ophthalmic oxymetazoline solution (Visine LR®) in each eye followed by one drop test article in each eye. The test article was a 0.2% (w/v) phentolamine mesylate solution, 0.4% (w/v) phentolamine mesylate solution, 0.8% (w/v) phentolamine mesylate solution, or placebo. Test articles contained the designed amount of phentolamine mesylate in a solution of Tears Naturale II® (from Alcon Labs). Placebo was just Tears Naturale II® (from Alcon Labs). Tears Naturale II® (from Alcon Labs) contains Dextran 70 (0.1% by weight), Hydroxypropyl Methylcellulose 2910 (0.3% by weight), Polyquaternium-1 (0.001% by weight), potassium chloride, water (purified), sodium borate, sodium chloride, and hydrochloric acid and/or sodium hydroxide as necessary to adjust the pH. The patients' pupil diameters were recorded at baseline (i.e., prior to treatment administration), and at 30 minutes, 1 hour, 2 hours, 4 hours, and 8 hours after administration of test articles. Total study duration was approximately nine hours.
Pupil diameters were measured to within 0.1 mm for each eye at baseline and each subsequent time point using a NeurOptics™ pupilometer. Comparisons of changes in mean values within treatment groups were tested for significance using two-tailed paired two sample t-tests with a threshold for significance set at p<0.01 (Bonferroni Correction for multiple paired t-tests). Differences between treatment groups with respect to mean values for pupil size over the course of the study were tested for significance using repeated measure ANOVA (which discards data from subjects lacking any data points). Differences in means between treatment groups at individual time points were tested for significance using one-way ANOVA.

Cc1ccc(N(CC2=NCCN2)c2cccc(O)c2)cc1 [phentolamine mesylate]
mean pupil diameters compared to placebo (ad hoc Fisher's tests) (any concentration, 2, 4 and 8 hours): significant differences in mean pupil diameters | mean changes in pupil diameters from baseline as a function of time (over the course of the study): significant reductions in pupil size

Cc1ccc(N(CC2=NCCN2)c2cccc(O)c2)cc1 [phentolamine]
differences in mean pupil diameters between different doses (any time point): no statistically significant differences | mean pupil diameters (one hour post treatment): lower
